Results reported in patent US20080004271A1, “Inhibitors of TNFalpha, PDE4 and B-RAF, compositions thereof and methods of use therewith” (priority 2006, published 2008).

Key:
[1] = target: T1, V600E mutant B-RAF (Homo sapiens, UniProt P15056, V600E); test: V600E Mutant B-RAF 33P Assay; format: biochemical
T1 construct: purchased Upstate
Experimental: Substrate (HIS-MEK1 K97M) is prepared by Celgene Corp. as described above.
Test compound is diluted in 100% DMSO (600 μM). […] Substrate mixture is prepared as 7.5 μM HIS-MEK1 K97M in assay buffer. ATP mixture is prepared as 300 μM ATP, 75 mM MgCl2, 0.05 μCi/μl ^33P ATP in assay buffer.
In a 96 well assay plate (Falcon Polylpropylene well U-bottom), the following are added to each well: 2.5 μl of test compound solution (serial dilutions), 20 μl of substrate mixture and 17.5 μl of enzyme mixture. The plate is incubated for at least 15 minutes. 10 μl of ATP mixture is added and the plate is incubated at room temperature for about 60 minutes. 80 μl of 12.5% TCA is added to each well, and the plate is incubated for at least 20 minutes. The contents of the plate is transferred to a glass fiber filter plate (Millipore) using a Packard Harvester (washing 10× with 1×PBS). 50 μl of Scintillation-20 fluid is added to each well. The plate is read using a Packard TopCount.

[2] = system: A375 cells; test: Alamar Blue Viability Assay; format: cell-based; details: 3 days
Experimental: A375 cells (ATCC # CRL-1619; Passage 4˜15; doubling time is roughly 18 hours) are used. Culture medium is DMEM (high glucose, with L-glutamine)+10% FBS+Pen/Strep. Cells are passed every three days at 1:20.
200 μl of medium only is added into all wells along the edges of a 96-well flat bottom plate and 180 μl of cell suspension (containing 1,000 cells) per well is added into the plate with a Low Evaporation Lid (Costar Cat # 3595). The cells are cultured overnight. Compounds and controls are diluted according to standard compound dilution protocol described below. From 30 mM stock solution, 10 mM, 3 mM, 1 mM, and 0.3 mM solutions in 100% DMSO are prepared using the following serial dilution protocol:
The 30, 10, 3, 1 and 0.3 mM solutions are diluted 1:50 (DMSO:medium) by adding 4 μl of each to 196 μl of culture medium. This yields 600 μM, 200 μM, 60 μM, 20 μM, and 6 μM secondary stock solutions. 4 μl of DMSO are added to 196 μl medium for the DMSO control as well. 20 μl of compound dilutions, including the DMSO control locations (Row G, Columns 2-10 are DMSO control wells), are added in triplicate to the cells in the 96-well plate using a repeat pipettor (see plate layout below). This yields final concentrations of 60 μM, 20 μM, 6 μM, 2 μM, and 0.6 μM containing 0.2% DMSO in each well. The plate is gently tapped to evenly distribute compound within the well. The plate is incubated at 5% CO2 at 37° C. for 3 days.
20 μl of Alamar Blue (Biosource #DAL-1100) is added to each well. The plate is incubated in 5% CO2 incubator for 4 hours. Fluorescence is measured with excitation wavelength at 530 nm and emission wavelength at 590 nm using a Victor 2 multilabel plate reader (Perkin Elmer). Data is saved with plate format as a Text file and entered into ActivityBase (Cell-based SAR; Prolif-Alamar; MTT 5 plates unfixed fit) to calculate the percent of DMSO values for each compound set of triplicate wells and IC50 curves are plotted.

T1 sequence (P15056 whole entry V600E): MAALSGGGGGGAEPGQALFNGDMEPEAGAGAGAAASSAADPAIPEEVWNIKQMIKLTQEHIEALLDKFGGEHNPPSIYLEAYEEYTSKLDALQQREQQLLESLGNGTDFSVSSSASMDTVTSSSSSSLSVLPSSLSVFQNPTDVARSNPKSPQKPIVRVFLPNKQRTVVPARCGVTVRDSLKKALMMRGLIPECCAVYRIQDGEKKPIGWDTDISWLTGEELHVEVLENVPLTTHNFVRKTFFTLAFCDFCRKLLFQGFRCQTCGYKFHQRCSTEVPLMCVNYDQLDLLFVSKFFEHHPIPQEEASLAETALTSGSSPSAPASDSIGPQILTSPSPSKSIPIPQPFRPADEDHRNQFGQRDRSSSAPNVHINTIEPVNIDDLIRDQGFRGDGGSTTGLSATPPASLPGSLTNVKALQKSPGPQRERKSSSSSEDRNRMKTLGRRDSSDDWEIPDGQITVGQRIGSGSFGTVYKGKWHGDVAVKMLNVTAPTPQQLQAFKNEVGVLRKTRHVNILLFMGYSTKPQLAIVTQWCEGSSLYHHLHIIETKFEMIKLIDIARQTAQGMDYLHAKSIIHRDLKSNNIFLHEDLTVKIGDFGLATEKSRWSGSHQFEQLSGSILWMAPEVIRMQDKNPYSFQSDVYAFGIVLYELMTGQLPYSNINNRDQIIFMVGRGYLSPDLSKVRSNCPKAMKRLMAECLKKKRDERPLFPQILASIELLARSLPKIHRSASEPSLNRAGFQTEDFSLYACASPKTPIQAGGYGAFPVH

Row | SMILES | IC50 [1] [µM] | IC50 ([2]; Homo sapiens, A-375, 72 h) [µM] | IC50 [2] [µM]
1 | NC(=O)c1sc2nc(NC3CC3)nc(-c3ccc(OCc4ccccc4)nc3)c2c1N [Example 168] | 0.1 to 10 | 20 to 30 | 
2 | NC(=O)c1sc2nc(NC3CC3)nc(-c3ccc(O)nc3)c2c1N [Example 170] | 30 to 60 | > 60 | 
3 | COc1cncc(-c2nc(N[C@@H](C)CO)nc3sc(C(N)=O)c(N)c23)c1 [Example 177] |  | 10 to 20 | 
4 | CCc1cncc(-c2nc(NC(C)(C)CO)nc3sc(C(N)=O)c(N)c23)c1 [Example 178] | 0.1 to 10 | 10 to 20 | 
5 | CC(C)(CO)Nc1nc(-c2cncc(OCc3ccccc3)c2)c2c(N)c(C(N)=O)sc2n1 [Example 179] | 30 to 60 | 10 to 20 | 
6 | CC(C)(CO)Nc1nc(-c2cncc(O)c2)c2c(N)c(C(N)=O)sc2n1 [Example 180] | 0.1 to 10 | 10 to 20 | 
7 | NC(=O)c1sc2nc(NC3CC3)nc(-c3ccccc3OCc3ccccc3)c2c1N [Example 182] | 30 to 60 | 30 to 60 | 
8 | NC(=O)c1sc2nc(NC3CC3)nc(-c3ccccc3O)c2c1N [Example 183] | 0.1 to 10 | 30 to 60 | 
9 | COc1cccc(-c2nc(N)nc3sc(C(N)=O)c(N)c23)c1 [Example 184] | 0.1 to 10 | 20 to 30 | 
10 | NC(=O)c1sc2nc(NC3CC3)nc(-c3ccccc3F)c2c1N [Example 186] | 0.1 to 10 | 20 to 30 | 
11 | NC(=O)c1sc2nc(NC3CC3)nc(-c3c(F)cccc3F)c2c1N [Example 187] | 0.1 to 10 | 20 to 30 | 
12 | NC(=O)c1nc(-c2ccc(Cl)c(Cl)c2)c2c(N)c(C(N)=O)sc2n1 [Example 193] | 0.1 to 10 |  | 20 to 30
13 | CC(C)[C@H](CO)Nc1nc(-c2ccc(Cl)c(Cl)c2)c2c(N)c(C(N)=O)sc2n1 [Example 198] | 0.1 to 10 |  | 10 to 20
14 | CC(C)(C)Nc1nc(-c2ccc(Cl)c(Cl)c2)c2c(N)c(C(N)=O)sc2n1 [Example 209] | 0.1 to 10 | 10 to 20 | 
15 | C[C@@H](CO)Oc1nc(-c2ccc(Cl)c(Cl)c2)c2c(N)c(C(N)=O)sc2n1 [Example 211] |  | 10 to 20 | 
16 | C[C@H](O)[C@H](C)Oc1nc(-c2ccc(Cl)c(Cl)c2)c2c(N)c(C(N)=O)sc2n1 [Example 213] | 0.1 to 10 | > 60 | 
17 | CC(C)(O)CNc1nc(-c2ccc(Cl)c(Cl)c2)c2c(N)c(C(N)=O)sc2n1 [Example 215] | 0.1 to 10 | 10 to 20 | 
18 | CC(C)(CN1CCCC1)Nc1nc(-c2ccc(Cl)c(Cl)c2)c2c(N)c(C(N)=O)sc2n1 [Example 216] | 0.1 to 10 | 10 to 20 | 
19 | CC(O)CCNc1nc(-c2ccc(Cl)c(Cl)c2)c2c(N)c(C(N)=O)sc2n1 (stereo not drawn) [Example 221] | 0.1 to 10 | 10 to 20 | 
20 | CCCCNc1nc(-c2ccc(Cl)c(Cl)c2)c2c(N)c(C(N)=O)sc2n1 [Example 223] | 0.1 to 10 |  | 
21 | NC(=O)c1sc2nc(NC3CNC3)nc(-c3ccc(Cl)c(Cl)c3)c2c1N [Example 227] | 0.1 to 10 | 0.1 to 10 | 
22 | NC(=O)c1sc2nc(N[C@@H]3CCOC3)nc(-c3ccc(Cl)c(Cl)c3)c2c1N [Example 229] | 0.1 to 10 | 10 to 20 | 
23 | COc1cc(-c2nc(NC3CC3)nc3sc(C(N)=O)c(N)c23)ccc1C(F)(F)F [Example 233] | 0.1 to 10 | 10 to 20 | 
24 | NC(=O)c1sc2nc(NC3CC3)nc(-c3ccc(C(F)(F)F)cc3)c2c1N [Example 235] | 0.1 to 10 | 20 to 30 | 
25 | NC(=O)c1sc2nc(NC3CC3)nc(-c3ccnc(Cl)c3)c2c1N [Example 236] | 0.1 to 10 | 30 to 60 | 

Row | SMILES | IC50 [1] [µM] | IC50 ([2]; Homo sapiens, A-375, 72 h) [µM] | IC50 [2] [µM]
26 | NC(=O)c1sc2nc(NC3CC3)nc(-c3ccnc(O)c3)c2c1N [Example 237] | 10 to 20 | > 60 | 
27 | NC(=O)c1sc2nc(NC3CC3)nc(-c3cccc([N+](=O)[O-])c3)c2c1N [Example 244] | 0.1 to 10 | 30 to 60 | 
28 | NC(=O)c1sc2nc(NC3CC3)nc(-c3cccc(N)c3)c2c1N [Example 245] |  | > 60 | 
29 | NC(=O)c1sc2nc(NC3CC3)nc(-c3cccc(NC(=O)C(F)(F)F)c3)c2c1N [Example 246] | 10 to 20 | > 60 | 
30 | NC(=O)Cc1nc(-c2ccc(Cl)c(Cl)c2)c2c(N)c(C(N)=O)sc2n1 [Example 254] | 0.1 to 10 | > 60 | 
31 | NC(=O)c1sc2nc(CC(=O)O)nc(-c3ccc(Cl)c(Cl)c3)c2c1N [Example 255] | 0.1 to 10 | > 60 | 
32 | COc1cc(-c2nc(NC(C)(C)CO)nc3sc(C(N)=O)c(N)c23)cc(Cl)c1Cl [Example 263] |  | 10 to 20 | 
33 | NC(=O)c1sc2ncnc(-c3cc4c(c(OCc5ccccc5)c3)CCO4)c2c1N [Example 266] | > 60 | 10 to 20 | 
34 | NC(=O)c1sc2ncnc(-c3cc(O)c4c(c3)OCC4)c2c1N [Example 267] | 0.1 to 10 | 10 to 20 | 
35 | NC(=O)c1nc(-c2ccc(Cl)c(Cl)c2)c2c(N)c(C(N)=O)sc2n1 [Example 268] | 0.1 to 10 | 30 to 60 | 
36 | CC(C)[C@@H](CO)Nc1nc(-c2ccc(Cl)c(Cl)c2)c2c(N)c(C(N)=O)sc2n1 [Example 272] | 0.1 to 10 | 10 to 20 | 
37 | COc1cncc(-c2nc(N)nc3sc(C(N)=O)c(N)c23)c1 [Example 277] |  | 0.1 to 10 | 
38 | NC(=O)c1sc2nc(NC3CC3)nc(Nc3ccccc3)c2c1N [Example 278] | 10 to 20 | 30 to 60 | 
39 | NC(=O)c1sc2nc(NC3CC3)nc(Nc3ccc(Cl)c(Cl)c3)c2c1N [Example 279] | 30 to 60 | 0.1 to 10 | 
40 | NC(=O)c1sc2nc(NC3(CO)CCC3)nc(-c3ccc(Cl)c(Cl)c3)c2c1N [Example 281] | 0.1 to 10 | 10 to 20 | 
41 | COc1ccc(NC(=O)Nc2cccc(-c3ncnc4sc(C(N)=O)c(N)c34)c2)cc1 [Example 283] |  | 10 to 20 | 
42 | COc1ccnc(-c2nc(NC(C)(C)CO)nc3sc(C(N)=O)c(N)c23)c1 [Example 284] | 30 to 60 | 10 to 20 | 
43 | CCOc1nc(-c2cccc(C(F)F)c2)c2c(N)c(C(N)=O)sc2n1 [Example 285] | 0.1 to 10 | 10 to 20 | 
44 | CC(C)(CO)Nc1nc(-c2cccc(C(F)F)c2)c2c(N)c(C(N)=O)sc2n1 [Example 286] | 0.1 to 10 | 10 to 20 | 
45 | NC(=O)c1sc2ncnc(-c3cccc(Nc4nc5cc(C(F)(F)F)ccc5[nH]4)c3)c2c1N [Example 287] |  | 0.1 to 10 | 
46 | NC(=O)c1sc2ncnc(-c3cccc(Nc4nc5cc(C(F)(F)F)ccc5o4)c3)c2c1N [Example 288] | 0.1 to 10 | 10 to 20 | 
47 | NC(=O)c1sc2ncnc(-c3cccc([N+](=O)[O-])c3)c2c1N [Example 289] |  | 10 to 20 | 
48 | NC(=O)c1sc2ncnc(-c3cccc(N)c3)c2c1N [Example 290] |  | 10 to 20 | 
49 | NC(=O)c1sc2ncnc(-c3cccc(NC(=O)Nc4ccccn4)c3)c2c1N [Example 294] |  | 10 to 20 | 
